According to patent US20170311606A1, “SYNERGISTIC BACILLUS THURINGIENSIS SUBSP. KURSTAKI AND FLUBENDIAMIDE MIXTURES FOR BEET ARMYWORM, SOYBEAN LOOPER, CORN EARWORM, AND CABBAGE LOOPER CONTROL” (priority 2016, published 2017):
Read-outs that look alike come from different tables or passages of the source.

Key:
cabbage looper larvae = assay: Leaf dip bioassay, cabbage looper larvae; type: in vivo; settings: Trichoplusia ni, foliar, Btk 0.54 ppm, flubendiamide 0.49 ppm, alone or mixed, read-out: % Efficacy
Protocol: (§1) The present invention is not limited to the products or formulation types used herein. In each example below, the studies were conducted as follows.
(§2) For these tests, standardized laboratory leaf dip methods were used to inoculate plant material with treatment(s). Dry, treated leaves were placed into Petri dishes (100×25 mm) containing filter paper wetted with 500 μl of distilled H2O (“dH2O”). Each dish was then infested with between 5 and 10 larvae, dependent on species. Efficacy ratings were taken at specified intervals. Synergy ratings were calculated for each test.
(§3) % Cexp=A+B−(AB/100), where % Cexp is the expected efficacy and “in which A and B are the control levels given by the single [insecticides]. […] Adopting a conservative approach, Applicant determined synergy to be present at ratios of >1.15.

soybean looper larvae = assay: Leaf dip bioassay, soybean looper larvae; type: in vivo, Chrysodeixis includens; settings: foliar, Btk 0.54 ppm, flubendiamide 3.9 ppm, alone or mixed, read-out: % Efficacy
Protocol: as §1, §2, §3

[1] = tested on: southwestern corn borer larvae; assay: Leaf dip bioassay, southwestern corn borer larvae; type: in vivo; settings: foliar, Btk 0.54 ppm, flubendiamide 0.215 ppm, alone or mixed, read-out: % Efficacy
Protocol: as §1, §2, §3

diamondback moth larvae = assay: Leaf dip bioassay, diamondback moth larvae; type: in vivo; settings: Plutella xylostella, foliar, Btk 0.54 ppm, flubendiamide 0.215 ppm, alone or mixed, read-out: % Efficacy
corn earworm larvae = assay: Leaf dip bioassay, corn earworm larvae; type: in vivo; settings: Helicoverpa zea, foliar, Btk 0.54 ppm, flubendiamide 0.975 ppm, alone or mixed, read-out: % Efficacy
Protocol: as §1, §2, §3

beet armyworm larvae = assay: Leaf dip bioassay, beet armyworm larvae; type: in vivo; settings: Spodoptera exigua, foliar, alone or mixed, read-out: % Efficacy
Protocol: as §1, §2, §3

sugarcane borer larvae = assay: Leaf dip bioassay, sugarcane borer larvae; type: in vivo; settings: foliar, Btk 0.54 ppm, flubendiamide 2.15 ppm, alone or mixed, read-out: % Efficacy
Protocol: as §1, §2, §3

In the case of `Cc1cc(C(F)(C(F)(F)F)C(F)(F)F)ccc1NC(=O)c1cccc(I)c1C(=O)NC(C)(C)CS(C)(=O)=O` [Flubendiamide, 3-iodo-N′-(2-mesyl-1,1-dimethylethyl)-N-{4-[1,2,2,2-tetrafluoro-1-(trifluoromethyl)ethyl]-o-tolyl}phthalamide], the Emax at 0.49 ppm (cabbage looper larvae; 24 h after treatment) is reported as 7%, the Emax at 0.49 ppm (cabbage looper larvae; 48 h after treatment) is reported as 19% and the Emax at 3.9 ppm (soybean looper larvae; 24 h after treatment) is reported as 4%. For the same molecule, the Emax at 3.9 ppm (soybean looper larvae; 48 h after treatment) was 16%, the Emax at 0.215 ppm ([1]; 24 h after treatment) was 40% and the Emax at 0.215 ppm ([1]; 48 h after treatment) was 48%. The Emax at 0.215 ppm (diamondback moth larvae; 24 h after treatment) was 7%, the Emax at 0.215 ppm (diamondback moth larvae; 48 h after treatment) was 19% and the Emax at 0.975 ppm (corn earworm larvae; 24 h after treatment) was 14%. For the same molecule, the Emax at 0.975 ppm (corn earworm larvae; 48 h after treatment) was 24%, the Emax at 0.49 ppm (beet armyworm larvae; 24 h after treatment) was 6% and the Emax at 0.49 ppm (beet armyworm larvae; 48 h after treatment) was 14%. The Emax at 2.15 ppm (sugarcane borer larvae; 24 h after treatment) was 28% and the Emax at 2.15 ppm (sugarcane borer larvae; 48 h after treatment) was 40%.
